# Source: ChEMBL document CHEMBL1146190, “Azadideoxyadenosine: synthesis, enzymology, and anti-HIV activity” (Bioorg Med Chem Lett, 2006)
# Legend:
# PBMC = experiment: Cytotoxicity against human PBMC; format: functional
# [1] = tested on: Human immunodeficiency virus 1; experiment: Antiviral activity against HIV1 TEKI; format: functional, organism-based; details: Human immunodeficiency virus 1, TEKI
# [2] = tested on: Human immunodeficiency virus 1; experiment: Antiviral activity against HIV1 NL4-3; format: functional, organism-based; details: Human immunodeficiency virus 1, NL4-3
smiles,measurement,setting,value
Nc1ncnc2c1ncn2[C@H]1CN[C@@H](CO)C1,CC50,PBMC,46.6 µM
same,IC50,[1],3.52 µM
same,IC50,[2],3.11 µM
Cc1cn([C@H]2C[C@H](N=[N+]=[N-])[C@@H](CO)O2)c(=O)[nH]c1=O [ZIDOVUDINE],CC50,PBMC,> 1 µM
